Results published in patent publication US20240352000A1, “NOVEL PYRIMIDINE-2,4-DIAMINE DERIVATIVES, PREPARATION METHOD THEREFOR, AND PHARMACEUTICAL COMPOSITION CONTAINING SAME AS ACTIVE INGREDIENT FOR PREVENTION OR TREATMENT OF CANCER” (KOREA RESEARCH INSTITUTE OF CHEMICAL TECHNOLOGY, priority 2021, published 2024).

Key:
[1] = molecular target: EGFR A763_Y764insFHEA (Homo sapiens (Human), UniProt P00533, INS763FHEA); assay: HTRF enzyme assay, EGFR Ex20 insertion mutant enzyme; format: biochemical; conditions: recombinant enzyme, 37° C. 2 hours
Description: An experiment to measure the activity of the compounds of the present invention against EGFR mutant enzymes was performed as follows using the HTRF system sold by Cisbio. For the EGFR mutant enzyme, EGFR A763_Y764insFHEA enzyme, a recombinant protein provided by SignalChem was purchased and used.
The composition of the assay buffer used for measuring the activity was 50 mM Tris-HCl pH 7.5, 100 mM NaCl, 7.5 mM MgCl2, 3 mM KCl, 0.01% Tween 20, 0.1% BSA, and 1 mM DTT. Here, an enzyme reaction was performed using ATP at a concentration of […] and a peptide substrate labeled with biotin at a concentration of […]. Analysis of the inhibitory effect of the compounds against the EGFR activity was conducted according to the following analysis reaction recipe. • Component 1: 4 μL of an EGFR mutant enzyme • Component 2: 2 μL of a compound solution • Component 3: 4 μL of ATP and a peptide labeled with biotin
The enzyme reaction was started by first mixing Component 1 and Component 2 and then adding Component 3. After reaction at 37° C. for 2 hours, […] of measurement solution consisting of streptavidin-XL665 and europium-labeled anti-phosphotyrosine antibody provided by Cisbio was added to the enzyme reaction solution and reacted at room temperature for 1 hour. Finally, the ratio of fluorescence values at 615 nm and 665 nm was obtained using the Envision equipment from Perkin-Elmer to quantitatively measure the enzyme activity and confirmed the inhibitory ability of the compounds. The measurement values measured at seven compound concentrations were analyzed using the Prism program (version 5.01, Graphpad Software, Inc.), and the IC50 value, which is an indicator of the inhibitory ability of the compound, was calculated.

[2] = system: Ba/F3 EGFR V769_D770insASV; assay: CellTiter-Glo cell growth, Ba/F3 EGFR Ex20 insertion mutant; format: cell-based; conditions: 72 hours
Description: An experiment to measure the activity of the compounds of the present invention against the Ba/F3 EGFR V769_D770insASV mutant cell line was performed as follows using the CellTiter-Glo system sold by Promega. The CellTiter-Glo assay is a method to confirm the cell viability by measuring ATP present in cells in cell culture. For the Ba/F3 EGFR V769_D770insASV mutant cell line, a cell line provided by Crown Bioscience was purchased and used. The Ba/F3 EGFR V769_D770insASV mutant cell line was cultured in RPMI containing 10% FBS and 1% penicillin-streptomycin with 1 μg/ml of puromycin in an incubator at 37° C. and 5% CO2.
Analysis of the inhibitory ability effect of the compounds against the EGFR mutant cell growth was conducted according to the following analysis reaction recipe.
(§1) 1000 cells/100 μL were passaged and cultured in a 96-well cell culture plate, and after 24 hours, treated with the compound represented by Formula 1 at a concentration of 0, 0.01, 0.03, 0.1, 0.3, 1, 3, and 10 (M). After reaction for 72 hours, the plate treated with the compound was left at room temperature for 30 minutes, then further treated with 100 μL of reagent, and shaken at room temperature for 10 minutes. Finally, the ratio of fluorescence values at 570 nm was obtained using the equipment to quantitatively measure and confirmed the cell growth inhibitory ability of the compounds. The measurement values measured at eight compound concentrations were analyzed using the Prism program (version 5.01, Graphpad Software, Inc.), and the IC50 value, which is an indicator of the cell growth inhibitory ability of the compound, was calculated.

[3] = system: Ba/F3 EGFR del19; assay: CellTiter-Glo cell viability, Ba/F3 EGFR del19; format: cell-based; conditions: 72 hours
Description: (§2) An experiment to measure the activity of the compounds of the present invention against the mutant Ba/F3 EGFR cell line was performed as follows using the CellTiter-Glo system sold by Promega. The CellTiter-Glo assay is a method to confirm the cell viability by measuring ATP present in cells in cell culture. For the Ba/F3 EGFR del19, Ba/F3 EGFR del19/T790M, Ba/F3 del19/T790M/C797S mutant cell line, a cell line provided by Crown Bioscience was purchased and used. The Ba/F3 EGFR del19, Ba/F3 EGFR del19/T790M, Ba/F3 del19/T790M/C797S mutant cell line was cultured in RPMI containing 10% FBS and 1% penicillin-streptomycin with 1 μg of puromycin in an incubator at 37° C. and 5% CO2.
(§3) Analysis of the inhibitory ability effect of the compounds against EGFR was conducted according to the following analysis reaction recipe.
as §1, with “2500 cells/90 μL” for “1000 cells/100 μL”, “10 (μM).” for “10 (M).”, “100 μl” for “100 μL”, “the” for “the cell growth”

[4] = system: Ba/F3 EGFR del19/T790M; assay: CellTiter-Glo cell viability, Ba/F3 EGFR del19/T790M; format: cell-based; conditions: 72 hours
Description: as §2, §3
as §1, with “2500 cells/90 μL” for “1000 cells/100 μL”, “10 (μM).” for “10 (M).”, “100 μl” for “100 μL”, “the” for “the cell growth”

[5] = system: Ba/F3 EGFR L858R/T790M/C797S; assay: CellTiter-Glo cell viability, Ba/F3 EGFR L858R/T790M/C797S; format: cell-based; conditions: 72 hours
Description: An experiment to measure the activity of the compounds of the present invention against the mutant Ba/F3 EGFR cell line was performed as follows using the CellTiter-Glo system sold by Promega. The CellTiter-Glo assay is a method to confirm the cell viability by measuring ATP present in cells in cell culture. The Ba/F3 EGFR L858R, Ba/F3 EGFR L858R/T790M, Ba/F3 EGFR L858R/T790M/C797S mutant cell line was used. The Ba/F3 EGFR L858R, Ba/F3 EGFR L858R/T790M, and Ba/F3 EGFR L858R/T790M/C797S mutant cell lines was cultured in RPMI containing 10% FBS and 1% penicillin-streptomycin with 1 μg of puromycin in an incubator at 37° C. and 5% CO2.
as §3
as §1, with “2500 cells/90 μl” for “1000 cells/100 μL”, “(μM).” for “(M).”, “μl” for “μL”, “the” for “the cell growth”

Sequence of EGFR A763_Y764insFHEA (P00533 other isoform, or with tags, fused parts or gaps del 1-694/ins FHEA behind 763 limits assumed): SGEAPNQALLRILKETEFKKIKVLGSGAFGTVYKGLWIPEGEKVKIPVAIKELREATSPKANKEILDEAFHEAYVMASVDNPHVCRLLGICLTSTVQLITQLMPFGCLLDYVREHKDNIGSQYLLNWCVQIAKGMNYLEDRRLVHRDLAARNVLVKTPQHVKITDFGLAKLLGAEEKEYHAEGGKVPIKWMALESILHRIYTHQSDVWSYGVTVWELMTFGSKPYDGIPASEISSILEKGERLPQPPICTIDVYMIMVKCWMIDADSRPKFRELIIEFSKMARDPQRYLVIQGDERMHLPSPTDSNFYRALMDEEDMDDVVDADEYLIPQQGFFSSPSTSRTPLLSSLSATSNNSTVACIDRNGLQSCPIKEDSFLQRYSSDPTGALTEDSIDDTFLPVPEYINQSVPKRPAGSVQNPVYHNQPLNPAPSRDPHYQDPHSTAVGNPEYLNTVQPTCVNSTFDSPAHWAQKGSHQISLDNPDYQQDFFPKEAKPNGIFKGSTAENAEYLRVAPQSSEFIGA

IC50 [1] [nM] | IC50 [2] [nM] | IC50 [3] [nM] | IC50 [4] [nM] | IC50 [5] [nM] | SMILES
11 | 360 | < 30 | < 30 |  | COc1cc(N2CCC(N3CCN(C)CC3)CC2)ccc1Nc1ncc(Cl)c(Nc2cccc3c2N(S(C)(=O)=O)CCC3)n1 [Example 5, 5-chloro-N2-(2-methoxy-4-(4-(4-methylpiperazin-1-yl)piperidin-1-yl)phenyl)-N4-(1-(methylsulfonyl)-1,2,3,4-tetrahydroquinolin-8-yl)pyrimidine-2,4-diamine]
1.7 | 210 | < 30 | < 100 | < 100 | COc1cc(N2CCC(N3CCN(C)CC3)CC2)ccc1Nc1ncc(Cl)c(Nc2cccc3c2N(S(C)(=O)=O)CC3)n1 [Example 2, 5-chloro-N2-(2-methoxy-4-(4-(4-methylpiperazin-1-yl)piperidin-1-yl)phenyl)-N4-(1-(methylsulfonyl)indolin-7-yl)pyrimidine-2,4-diamine]
